# Reference: patent publication US20140148606A1, “ANTI-TUMOR EFFECTS OF ALLOSTERIC FOCAL ADHESION KINASE INHIBITOR, METHYL VIOLET DERIVATIVES” (Korea Institute of Science and Technology, priority 2012, published 2014)
# Experiments:
# [1] = target: T1, full-length FAK (Homo sapiens, UniProt Q05397); assay: FAK biochemical kinase assay (LANCE Ultra TR-FRET); conditions: for dependence of kinase inhibitory activity against full-length FAK on the concentration of ATP: methyl violet 2B at 2.7 μM, FIG. 2
# T1 construct: purchased Signalchem
# Procedure: Kinase reactions were performed at room temperature in lysis buffer (50 mM HEPES pH 7.5, 1 mM EGTA, 10 mM MgCl2, 2 mM DTT and 0.01% Tween-20) with 0.3 nM FAK (Signalchem), 100 nM ULight-poly GT (PerkinElmer), 10 μM ATP, and various concentrations (10 fold serial dilution, 6 points) of test compounds at a final volume of 10 μL. After 1 h, the kinase reaction was stopped by adding 10 mM EDTA and progressed by incubating the reaction mixture at room temperature for 5 min. To the mixture was added Detection Mix (Eu-anti-phospho-Tyr (PT66)) antibody to a final concentration of 2 nM and incubated for 1 h at room temperature. The plates were covered before being read using an EnVision® Multilabel reader in TR-FRET mode (excitation at 320 nm and emission at 665 nm, PerkinElmer).
# [2] = test system: p-JNK; assay: Western analysis, JNK phosphorylation in A375P cells; format: cell-based, human; conditions: 10 nM, 48 h
# Procedure: (§1) After incubating with the test compound for 48 h, both adherent and floating cancer cells were collected. The cells were lysed on ice in lysis buffer (50 mM Tris, pH 7.4, 150 mM NaCl, 1 mM EDTA, 1% NP-40, 0.25% sodium deoxycholate) supplemented with phosphatase inhibitors (Sigma #P2850, #5726; Phosphatase Inhibitor Cocktail I & II) and protease inhibitors (Complete, Mini, EDTA-free; Roche Applied Science) for 20 min. The protein concentration was determined using the Bio-Rad Protein assay reagent (Bio-Rad #500-0006). The lysate was centrifuged at 13000 rpm at 4° C. for 20 min. 50 μg of total proteins were mixed with […] (50 mM Tris-HCl (pH 6.8), 2% SDS, 10% 2-mercaptoethanol, 10% glycerol, and 0.002% bromophenol blue), boiled for 5 min, and subjected to a 10% SDS polyacrylamide gel electrophoresis. The proteins were electrophoresed onto nitrocellulose membranes and detected with antibodies against FER, FAK, DOCK180, Pyk2, Paxillin, AKT, GSK3, PTEN, JNK, ERK, Bcl-2, C-raf and Actin and against phosphorylated FER Tyr402, FAK Tyr925, Tyr861, Tyr577, Tyr576, Tyr397, Pyk2 Tyr402, Paxillin Tyr118, AKT S473, T308, GSK3β S9, JNK, ERK, Bad, C-raf and ERM T567, T564, T558 followed by the addition of horseradish peroxidase (HRP)-conjugated secondary antibodies and 3,3-diaminobenzidine tetrahydrochloride (DAB) as the HRP substrate.
# [3] = test system: A375P cells; assay: QCM ECMatrix Cell Invasion Assay; format: cell-based, human; conditions: 1 nM, 48 h
# Procedure: Invasion of A375P cells was assessed by using the QCM ECMatrix Cell Invasion Assay (Chemicon, Millipore, Calif.) according to the manufacturer's protocol. The cells were plated on the membrane of the upper chamber of the transwell at a concentration of 2.5×10^5 cells/well in 500 μL of serum-free medium. The medium in the lower chamber contained the test compound and 10% fetal bovine serum. The cells that passed through the polycarbonate membrane were stained with cell stain solution supplied in the Transwell Invasion assay (Chemicon, Millipore, Calif.) and photographed after 48 h of incubation. The invasion was quantitated by dissolving the stained cells in 10% acetic acid and transferring a consistent amount of the dye/solute mixture to a 96-well plate for colorimetric reading of OD at 560 nm.
# [4] = test system: PTEN; assay: Western analysis, PTEN level in A375P cells; format: cell-based, human; conditions: 48 h
# Procedure: as §1
# [5] = test system: p-ERK; assay: Western analysis, ERK phosphorylation in A375P cells; format: cell-based, human; conditions: 10 nM, 48 h
# Procedure: as §1
# [6] = test system: MDA-MB-231; assay: Anti-proliferative activity assay (MTT / CellTiter-Glo); format: cell-based; conditions: Homo sapiens; MDA-MB-231, breast; read-out: IC50 (nM), proliferation
# Procedure: (§2) Melanoma cells (A375P, A375SM) and breast cancer cells (MDA-MB-231, MCF7) were maintained in DMEM medium (Welgene, Daegu, Korea). Colorectal cancer cells (HCT116, HT29), lung cancer cells (A549) and prostate cancer cells (DU145) were grown in RPMI1640 medium (Welgene). NIH3T3 and Balb/c cells were cultured in DMEM/F12 medium (Welgene).
# (§3) Each medium was supplemented with 10% FBS (Welgene) and 1% penicillin/streptomycin (Welgene) in a humidified atmosphere with 5% CO2 at 37° C. A375P cells were purchased from the American Type Culture Collection (ATCC, Rockville, Md., US), and A375SM, MDA-MB-231, MCF7, HCT116, HT29, A549, DU145, NIH3T3 and Balb/c were purchased from the Korean Cell Line Bank (Seoul, Korea).
# (§4) Cells were taken from culture substrate with 0.05% trypsin-0.02% EDTA and plated at a density of 5×10^3 cells/well in 96 well plates and then incubated at 37° C. for 24 h in a humidified atmosphere with 5% CO2 prior to treatment of various concentration (tenfold serial dilution, 6 steps) of test compounds. The cell viability was assessed by the conventional 3-(4,5-dimethylthiazol-2-yl)-2,5-diphenyltetrazolium bromide (MTT) reduction assay and luminescent assay. The MTT and luminescent assays were carried out with CellTiter 96® and CellTiter-Glo® Luminescent Cell Viability Assay (Promega, Wis., USA) according to the manufacturer's instructions. The absorbance at 590 nm was recorded using EnVision2103 (PerkinElmer; Boston, Mass., US). The IC50 value was calculated using the GraphPad Prism 4.0 software.
# [7] = test system: Balb/c; assay: as above; format: cell-based; conditions: Mus musculus, fibroblast, read-out: IC50 (nM), proliferation
# Procedure: as §2, §3, §4
# [8] = test system: HCT116; assay: as above; format: cell-based; conditions: Homo sapiens, HCT-116; HCT116, colon; read-out: IC50 (nM), proliferation
# Procedure: as §2, §3, §4
# [9] = test system: MCF7; assay: as above; format: cell-based; conditions: Homo sapiens; MCF7, breast; read-out: IC50 (nM), proliferation
# Procedure: as §2, §3, §4
# [10] = test system: HT29; assay: as above; format: cell-based; conditions: Homo sapiens, HT-29; HT29, colon; read-out: IC50 (nM), proliferation
# Procedure: as §2, §3, §4
# [11] = test system: A375P; assay: as above; format: cell-based; conditions: Homo sapiens, skin, read-out: IC50 (nM), proliferation
# Procedure: as §2, §3, §4
# [12] = test system: NIH3T3; assay: as above; format: cell-based; conditions: Mus musculus; NIH3T3, fibroblast; read-out: IC50 (nM), proliferation
# Procedure: as §2, §3, §4
# [13] = test system: DU145; assay: as above; format: cell-based; conditions: Homo sapiens, DU-145; DU145, prostate; read-out: IC50 (nM), proliferation
# Procedure: as §2, §3, §4
# [14] = test system: A549; assay: as above; format: cell-based; conditions: Homo sapiens; A549, lung; read-out: IC50 (nM), proliferation
# Procedure: as §2, §3, §4
# [15] = test system: A375SM; assay: as above; format: cell-based; conditions: Homo sapiens, A375-SM, skin, read-out: IC50 (nM), proliferation
# Procedure: as §2, §3, §4
# [16] = test system: p-Bad; assay: Western analysis, Bad phosphorylation; format: cell-based, human; conditions: compared to Bcl-2
# Procedure: as §1
# [17] = test system: C-raf; assay: Western analysis, C-raf phosphorylation; format: cell-based, human
# Procedure: as §1
# [18] = test system: FAK; assay: Western analysis, FAK phosphorylation in A375P cells; format: cell-based, human; conditions: 0.1-10 nM, 48 h
# Procedure: as §1
# [19] = test system: A375P cells; assay: Migration (wound healing) assay, Ibidi Culture-Insert; format: cell-based, human; conditions: 1 nM, 48 h
# Procedure: Migration of the A375P cells was assessed by using the Culture-Inserts (Ibidi) according to the manufacturer's protocol. The cells were plated at a density of 1×10^5 cells/well in each well of Culture-Inserts. After 24 h incubation, the Culture-Inserts were removed, and wounds were created by using a 500-μm thick wall. The dish containing these cells was treated with medium containing the compound and incubated at 37° C. for 48 h. Phase-contrast images of the closed gap wound were captured using a microscope.
# [20] = test system: FER Tyr402; assay: Western analysis, FER phosphorylation in A375P cells; format: cell-based, human; conditions: 10 nM, 48 h
# Procedure: as §1
# [21] = test system: GSK3β S9; assay: Western analysis, GSK3β phosphorylation in A375P cells; format: cell-based, human; conditions: dose-dependent, 48 h
# Procedure: as §1
# [22] = test system: AKT; assay: Western analysis, AKT phosphorylation in A375P cells; format: cell-based, human; conditions: 1 nM, 48 h
# Procedure: as §1
# [23] = test system: Bcl-2; assay: Western analysis, Bcl-2 expression; format: cell-based, human; conditions: concentrations >1 nM, concentration-dependent
# Procedure: as §1
# T1 sequence (Q05397 whole entry): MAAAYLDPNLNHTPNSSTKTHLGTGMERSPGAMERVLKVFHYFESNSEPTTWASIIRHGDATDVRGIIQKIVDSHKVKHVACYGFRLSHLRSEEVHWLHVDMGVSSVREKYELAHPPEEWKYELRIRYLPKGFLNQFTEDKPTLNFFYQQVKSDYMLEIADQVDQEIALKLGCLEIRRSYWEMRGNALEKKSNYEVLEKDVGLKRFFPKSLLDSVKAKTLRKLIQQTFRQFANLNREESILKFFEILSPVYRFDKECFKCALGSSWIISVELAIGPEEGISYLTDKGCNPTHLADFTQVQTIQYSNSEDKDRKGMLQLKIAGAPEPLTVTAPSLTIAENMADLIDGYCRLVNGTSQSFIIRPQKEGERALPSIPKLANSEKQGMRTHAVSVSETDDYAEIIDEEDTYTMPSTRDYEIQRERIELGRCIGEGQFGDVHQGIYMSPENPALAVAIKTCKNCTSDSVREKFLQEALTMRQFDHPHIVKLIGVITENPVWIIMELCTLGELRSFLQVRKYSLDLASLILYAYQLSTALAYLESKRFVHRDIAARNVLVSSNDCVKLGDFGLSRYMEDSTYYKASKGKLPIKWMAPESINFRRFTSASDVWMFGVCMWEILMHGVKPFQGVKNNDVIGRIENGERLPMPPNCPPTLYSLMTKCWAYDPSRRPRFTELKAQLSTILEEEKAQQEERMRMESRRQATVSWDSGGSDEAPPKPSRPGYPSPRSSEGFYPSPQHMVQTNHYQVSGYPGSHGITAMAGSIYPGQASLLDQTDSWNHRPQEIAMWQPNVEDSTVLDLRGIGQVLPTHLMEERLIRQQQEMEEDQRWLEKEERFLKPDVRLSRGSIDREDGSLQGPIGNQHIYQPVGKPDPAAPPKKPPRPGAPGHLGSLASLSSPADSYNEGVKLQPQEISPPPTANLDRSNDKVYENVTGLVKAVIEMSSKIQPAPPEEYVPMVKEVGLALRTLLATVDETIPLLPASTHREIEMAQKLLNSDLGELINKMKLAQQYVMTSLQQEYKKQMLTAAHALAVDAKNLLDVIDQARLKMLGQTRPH
structure (smiles),measurement,setting,value
"CNC(=O)c1ccccc1Nc1nc(Nc2ccc(N3CCOCC3)cc2OC)ncc1Cl [TAE226, reference compound]",dependence of kinase inhibitory activity against full-length FAK on the concentration of ATP,[1],inversely proportional to the concentration of ATP
CN=C1C=CC(=C(c2ccc(N(C)C)cc2)c2ccc(N(C)C)cc2)C=C1.Cl [methyl violet 2B],inhibitory effect against p-JNK,[2],strong inhibitory effect
same,invasion of the A375P cells,[3],dose-dependent decrease
same,level of PTEN,[4],not altered
same,inhibitory effect against p-ERK,[5],strong inhibitory effect
same,IC50,[6],13.4 nM
same,IC50,[7],59400 nM
same,IC50,[8],36.9 nM
same,IC50,[9],69.7 nM
same,IC50,[10],18.1 nM
same,IC50,[11],19.6 nM
same,IC50,[12],938 nM
same,IC50,[13],81.5 nM
same,IC50,[14],45.6 nM
same,IC50,[15],34.1 nM
same,effect on p-Bad,[16],less effective
same,phosphorylation of C-raf,[17],did not affect
same,"inhibitory effect on phosphorylation of FAK Tyr925, Tyr861 and Tyr577",[18],much greater than that of Y576 and Y397
same,cancer cell (A375P) motility / migration,[19],suppresses
same,IC50,"[1]; 10 μM ATP, LANCE Ultra kinase assay",2.7 µM
same,dependence of kinase inhibitory activity against full-length FAK on the concentration of ATP,[1],independent of the concentration of ATP
same,inhibition of phosphorylation of FER Tyr402,[20],significantly inhibits
same,phosphorylation of GSK3β S9,[21],significantly blocked
same,inhibition of p-AKT Ser473,[22],dramatically inhibits
same,inhibition of p-AKT Thr308,[22],dramatically inhibits
same,expression of the anti-apoptotic molecule Bcl-2,[23],significantly suppressed
